Measurements reported in PubChem BioAssay (NCI).
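Briefly, cells in 96-well plates were exposed to five compound concentrations for 48 h, and endpoints were estimated by linear interpolation. TGI denotes the concentration required for complete inhibition of growth.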

Tests used:
Assay in all cases: DTP human tumour cell line panel, 48 h
786-0 renal = system: 786-0 renal
A498 renal = system: A498 renal
A549 NSCLC = system: A549 NSCLC
ACHN renal = system: ACHN renal
CAKI-1 renal = system: CAKI-1 renal
CCRF-CEM leukemia = system: CCRF-CEM leukemia
COLO 205 colon = system: COLO 205 colon
DU-145 prostate = system: DU-145 prostate
EKVX NSCLC = system: EKVX NSCLC
HCC-2998 colon = system: HCC-2998 colon
HCT-116 colon = system: HCT-116 colon
HCT-15 colon = system: HCT-15 colon
HL-60(TB) leukemia = system: HL-60(TB) leukemia
HOP-62 NSCLC = system: HOP-62 NSCLC
HOP-92 NSCLC = system: HOP-92 NSCLC
HS 578T breast = system: HS 578T breast
HT29 colon = system: HT29 colon
IGROV1 ovarian = system: IGROV1 ovarian
K-562 leukemia = system: K-562 leukemia
KM12 colon = system: KM12 colon
LOX IMVI melanoma = system: LOX IMVI melanoma
M14 melanoma = system: M14 melanoma
MALME-3M melanoma = system: MALME-3M melanoma
MCF7 breast = system: MCF7 breast
MDA-MB-231 breast = system: MDA-MB-231 breast
MDA-MB-435 = system: MDA-MB-435
MDA-N = system: MDA-N
MOLT-4 leukemia = system: MOLT-4 leukemia
NCI-H226 lung = system: NCI-H226 lung
NCI-H23 lung = system: NCI-H23 lung
NCI-H460 lung = system: NCI-H460 lung
NCI-H522 lung = system: NCI-H522 lung
NCI/ADR-RES ovarian = system: NCI/ADR-RES ovarian
OVCAR-3 ovarian = system: OVCAR-3 ovarian
OVCAR-4 ovarian = system: OVCAR-4 ovarian
OVCAR-5 ovarian = system: OVCAR-5 ovarian
OVCAR-8 ovarian = system: OVCAR-8 ovarian
PC-3 prostate = system: PC-3 prostate
RPMI-8226 leukemia = system: RPMI-8226 leukemia
RXF 393 renal = system: RXF 393 renal
SF-268 CNS = system: SF-268 CNS
SF-295 CNS = system: SF-295 CNS
SF-539 CNS = system: SF-539 CNS
SK-MEL-28 melanoma = system: SK-MEL-28 melanoma
SK-MEL-5 melanoma = system: SK-MEL-5 melanoma
SK-OV-3 ovarian = system: SK-OV-3 ovarian
SN12C renal = system: SN12C renal
SNB-19 CNS = system: SNB-19 CNS
SNB-75 CNS = system: SNB-75 CNS
SR leukemia = system: SR leukemia
SW-620 colon = system: SW-620 colon
T-47D breast = system: T-47D breast
TK-10 renal = system: TK-10 renal
U251 CNS = system: U251 CNS
UACC-257 melanoma = system: UACC-257 melanoma
UACC-62 melanoma = system: UACC-62 melanoma
UO-31 renal = system: UO-31 renal
SK-MEL-2 melanoma = system: SK-MEL-2 melanoma

CCCCCc1c(Cl)nc(Cl)nc1Cl
TGI (786-0 renal): 12.8 µM
TGI (A498 renal): 34.7 µM
TGI (A549 NSCLC): > 92.3 µM
TGI (ACHN renal): 77.7 µM
TGI (CAKI-1 renal): 8.6 µM
TGI (CCRF-CEM leukemia): 0.65 µM
TGI (COLO 205 colon): 27 µM
TGI (DU-145 prostate): 45.5 µM
TGI (EKVX NSCLC): 52 µM
TGI (HCC-2998 colon): 27 µM
TGI (HCT-116 colon): 14.1 µM
TGI (HCT-15 colon): 29.9 µM
TGI (HL-60(TB) leukemia): 5.93 µM
TGI (HOP-62 NSCLC): 39.7 µM
TGI (HOP-92 NSCLC): 15.3 µM
TGI (HS 578T breast): > 100 µM
TGI (HT29 colon): 18.5 µM
TGI (IGROV1 ovarian): 31.9 µM
TGI (K-562 leukemia): 7.45 µM
TGI (KM12 colon): 28.6 µM
TGI (LOX IMVI melanoma): 6.01 µM
TGI (M14 melanoma): 5.46 µM
TGI (MALME-3M melanoma): 28.1 µM
TGI (MCF7 breast): 27.3 µM
TGI (MDA-MB-231 breast): 17.8 µM
TGI (MDA-MB-435): 6.98 µM
TGI (MDA-N): 16.6 µM
TGI (MOLT-4 leukemia): 1.01 µM
TGI (NCI-H226 lung): 6.02 µM
TGI (NCI-H23 lung): 16 µM
TGI (NCI-H460 lung): 51.9 µM
TGI (NCI-H522 lung): 6.61 µM
TGI (NCI/ADR-RES ovarian): 46.3 µM
TGI (OVCAR-3 ovarian): 30.8 µM
TGI (OVCAR-4 ovarian): 43 µM
TGI (OVCAR-5 ovarian): 31.1 µM
TGI (OVCAR-8 ovarian): 25.9 µM
TGI (PC-3 prostate): 36.9 µM
TGI (RPMI-8226 leukemia): 12.3 µM
TGI (RXF 393 renal): 23.7 µM
TGI (SF-268 CNS): 49.2 µM
TGI (SF-295 CNS): 53.7 µM
TGI (SF-539 CNS): 29.9 µM
TGI (SK-MEL-28 melanoma): 46.5 µM
TGI (SK-MEL-5 melanoma): 18.1 µM
TGI (SK-OV-3 ovarian): 31.8 µM
TGI (SN12C renal): 10.8 µM
TGI (SNB-19 CNS): 38.9 µM
TGI (SNB-75 CNS): 93.1 µM
TGI (SR leukemia): 0.86 µM
TGI (SW-620 colon): 26.2 µM
TGI (T-47D breast): 52.2 µM
TGI (TK-10 renal): 32.2 µM
TGI (U251 CNS): 25.1 µM
TGI (UACC-257 melanoma): 29.7 µM
TGI (UACC-62 melanoma): 43.3 µM
TGI (UO-31 renal): 37.9 µM

C=CCNC(=O)NNC(O)(C(=O)OCC)C(F)(F)F (stereo not given)
TGI (786-0 renal): > 100 µM
TGI (A498 renal): > 100 µM
TGI (A549 NSCLC): > 100 µM
TGI (ACHN renal): > 100 µM
TGI (CAKI-1 renal): > 100 µM
TGI (CCRF-CEM leukemia): > 100 µM
TGI (COLO 205 colon): > 100 µM
TGI (DU-145 prostate): > 100 µM
TGI (EKVX NSCLC): > 100 µM
TGI (HCC-2998 colon): > 100 µM
TGI (HCT-116 colon): > 100 µM
TGI (HCT-15 colon): > 100 µM
TGI (HL-60(TB) leukemia): > 100 µM
TGI (HOP-62 NSCLC): > 100 µM
TGI (HOP-92 NSCLC): > 100 µM
TGI (HS 578T breast): > 100 µM
TGI (HT29 colon): > 100 µM
TGI (IGROV1 ovarian): > 100 µM
TGI (K-562 leukemia): > 100 µM
TGI (KM12 colon): > 100 µM
TGI (LOX IMVI melanoma): > 100 µM
TGI (M14 melanoma): > 100 µM
TGI (MALME-3M melanoma): > 100 µM
TGI (MCF7 breast): > 100 µM
TGI (MDA-MB-231 breast): > 100 µM
TGI (MDA-MB-435): > 100 µM
TGI (MDA-N): > 100 µM
TGI (MOLT-4 leukemia): > 100 µM
TGI (NCI-H226 lung): > 100 µM
TGI (NCI-H23 lung): > 100 µM
TGI (NCI-H460 lung): > 100 µM
TGI (NCI-H522 lung): > 100 µM
TGI (NCI/ADR-RES ovarian): > 100 µM
TGI (OVCAR-3 ovarian): > 100 µM
TGI (OVCAR-4 ovarian): > 100 µM
TGI (OVCAR-5 ovarian): > 100 µM
TGI (OVCAR-8 ovarian): > 100 µM
TGI (PC-3 prostate): > 100 µM
TGI (RPMI-8226 leukemia): > 100 µM
TGI (RXF 393 renal): > 100 µM
TGI (SF-268 CNS): > 100 µM
TGI (SF-539 CNS): > 100 µM
TGI (SK-MEL-2 melanoma): > 100 µM
TGI (SK-MEL-28 melanoma): > 100 µM
TGI (SK-MEL-5 melanoma): > 100 µM
TGI (SK-OV-3 ovarian): > 100 µM
TGI (SN12C renal): > 100 µM
TGI (SNB-19 CNS): > 100 µM
TGI (SNB-75 CNS): > 100 µM
TGI (SR leukemia): > 100 µM
TGI (SW-620 colon): > 100 µM
TGI (T-47D breast): > 100 µM
TGI (TK-10 renal): > 100 µM
TGI (U251 CNS): > 100 µM
TGI (UACC-257 melanoma): > 100 µM
TGI (UO-31 renal): > 100 µM

Clc1ccc(Cl)c(N=Nc2cc3c4c(c2)CCCN4CCC3)c1
TGI (786-0 renal): > 10 µM
TGI (A498 renal): > 10 µM
TGI (A549 NSCLC): > 10 µM
TGI (ACHN renal): > 10 µM
TGI (CAKI-1 renal): > 10 µM
TGI (CCRF-CEM leukemia): > 10 µM
TGI (COLO 205 colon): > 10 µM
TGI (DU-145 prostate): > 10 µM
TGI (EKVX NSCLC): > 10 µM
TGI (HCC-2998 colon): > 10 µM
TGI (HCT-116 colon): > 10 µM
TGI (HCT-15 colon): > 10 µM
TGI (HL-60(TB) leukemia): > 10 µM
TGI (HOP-62 NSCLC): > 10 µM
TGI (HOP-92 NSCLC): > 10 µM
TGI (HS 578T breast): > 10 µM
TGI (HT29 colon): > 10 µM
TGI (IGROV1 ovarian): > 10 µM
TGI (K-562 leukemia): > 10 µM
TGI (KM12 colon): > 10 µM
TGI (LOX IMVI melanoma): > 10 µM
TGI (M14 melanoma): > 10 µM
TGI (MALME-3M melanoma): > 10 µM
TGI (MCF7 breast): > 10 µM
TGI (MDA-MB-231 breast): > 10 µM
TGI (MDA-MB-435): > 10 µM
TGI (MDA-N): > 10 µM
TGI (MOLT-4 leukemia): > 10 µM
TGI (NCI-H226 lung): > 10 µM
TGI (NCI-H23 lung): > 10 µM
TGI (NCI-H460 lung): > 10 µM
TGI (NCI-H522 lung): > 10 µM
TGI (NCI/ADR-RES ovarian): > 10 µM
TGI (OVCAR-3 ovarian): > 10 µM
TGI (OVCAR-4 ovarian): > 10 µM
TGI (OVCAR-8 ovarian): > 10 µM
TGI (PC-3 prostate): > 10 µM
TGI (RPMI-8226 leukemia): > 10 µM
TGI (RXF 393 renal): > 10 µM
TGI (SF-268 CNS): > 10 µM
TGI (SF-295 CNS): > 10 µM
TGI (SF-539 CNS): > 10 µM
TGI (SK-MEL-2 melanoma): > 10 µM
TGI (SK-MEL-28 melanoma): > 10 µM
TGI (SK-MEL-5 melanoma): > 10 µM
TGI (SK-OV-3 ovarian): > 10 µM
TGI (SN12C renal): > 10 µM
TGI (SNB-19 CNS): > 10 µM
TGI (SNB-75 CNS): > 10 µM
TGI (SR leukemia): > 10 µM
TGI (SW-620 colon): > 10 µM
TGI (T-47D breast): > 10 µM
TGI (TK-10 renal): > 10 µM
TGI (U251 CNS): > 10 µM
TGI (UACC-257 melanoma): > 10 µM
TGI (UACC-62 melanoma): > 10 µM
TGI (UO-31 renal): > 10 µM
